Laboratory results published in paper PMC12028158, “Synthesis and In Vitro Evaluation of the Anticancer Effect of Novel Phosphonium Vindoline Derivatives” (International Journal of Molecular Sciences, 2025).
Read-outs that look alike come from different tables or passages of the source.

Columns and labels:
Format in all cases: cell-based
NCI-H23 = assay: NCI60 five-dose screen; settings: Homo sapiens
SNB-75 [1] = assay: NCI60 five-dose screen; settings: Homo sapiens
KM12 = assay: NCI60 five-dose screen; settings: Homo sapiens
OVCAR-5 = assay: NCI60 one-dose screen; settings: Homo sapiens, OVCAR-5, read-out: Growth percent
NCI/ADR-RES = assay: NCI60 five-dose screen; settings: Homo sapiens
MDA-MB231ATCC = assay: NCI60 five-dose screen; settings: Homo sapiens, MDA-MB-231
SF-539 = assay: NCI60 five-dose screen; settings: Homo sapiens
UO-31 = assay: NCI60 five-dose screen; settings: Homo sapiens
SK-OV-3 = assay: NCI60 one-dose screen; settings: Homo sapiens
NCI-H322M [2] = assay: NCI60 five-dose screen; settings: Homo sapiens
SK-MEL-2 = assay: NCI60 five-dose screen; settings: Homo sapiens
SF-268 = assay: NCI60 five-dose screen; settings: Homo sapiens
OVCAR-4 = assay: NCI60 one-dose screen; settings: Homo sapiens
OVCAR-3 = assay: NCI60 one-dose screen; settings: Homo sapiens
SNB-75 [3] = assay: NCI60 one-dose screen; settings: Homo sapiens
NCI-H322M [4] = assay: NCI60 one-dose screen; settings: Homo sapiens, read-out: Growth percent
K-562 = assay: NCI60 one-dose screen; settings: Homo sapiens
NCI-H460 = assay: NCI60 one-dose screen; settings: Homo sapiens
A549/ATCC = assay: NCI60 one-dose screen; settings: Homo sapiens
SNB-19 = assay: NCI60 one-dose screen; settings: Homo sapiens
HCT-116 = assay: NCI60 one-dose screen; settings: Homo sapiens
Breast Cancer panel = assay: NCI60 five-dose screen, panel mean; settings: Homo sapiens, read-out: Mean GI50
MALME-3M [5] = assay: NCI60 five-dose screen; settings: Homo sapiens
HS 578T = assay: NCI60 five-dose screen; settings: Homo sapiens
COLO 205 = assay: NCI60 five-dose screen; settings: Homo sapiens
[6] = test system: 60 human tumor cell lines (NCI60); assay: NCI60 one-dose screen, overall mean; settings: Homo sapiens, read-out: Mean growth percent
SN12C = assay: NCI60 one-dose screen; settings: Homo sapiens, read-out: Growth percent
HL-60(TB) = assay: NCI60 five-dose screen; settings: Homo sapiens
HOP-92 = assay: NCI60 five-dose screen; settings: Homo sapiens
DU-145 = assay: NCI60 five-dose screen; settings: Homo sapiens
SK-MEL-5 = assay: NCI60 one-dose screen; settings: Homo sapiens
ACHN = assay: NCI60 one-dose screen; settings: Homo sapiens, read-out: Growth percent
MALME-3M [7] = assay: NCI60 one-dose screen; settings: Homo sapiens, read-out: Growth percent
RPMI-8226 = assay: NCI60 one-dose screen; settings: Homo sapiens
SR = assay: NCI60 five-dose screen; settings: Homo sapiens
SK-MEL-28 = assay: NCI60 one-dose screen; settings: Homo sapiens
[8] = test system: 60 human tumor cell lines (NCI60); assay: NCI60 five-dose screen, overall mean; settings: 60 cell, mean over all 60 cell lines, read-out: Mean GI50

`CC[C@]12C=CCN3CC[C@@]4(c5ccc(OC)cc5N(C)[C@H]4[C@@](O)(C(=O)OC)[C@@H]1OC(=O)CCC[P+](c1ccccc1)(c1ccccc1)c1ccccc1OC)[C@@H]32` [9f] was tested, and the GI50 (NCI-H23; NCI-H23) was 413 nM, the GI50 (SNB-75 [1]; SNB-75) was 197 nM and the GI50 (KM12; KM12) was 331 nM. The activity at 10 µM (OVCAR-5) was 10.6%, the GI50 (NCI/ADR-RES) was 26.1 µM and the GI50 (MDA-MB231ATCC) was 397 nM. It also gave a GI50 (SF-539; SF-539) of 434 nM, a GI50 (UO-31; UO-31) of 11 µM and an activity at 10 µM (SK-OV-3; SK-OV-3, read-out: Growth percent) of -33.4%. For the same compound, the GI50 (NCI-H322M [2]) was 2230 nM, the GI50 (SK-MEL-2; SK-MEL-2) was 322 nM and the GI50 (SF-268; SF-268) was 372 nM. For the same compound, the activity at 10 µM (OVCAR-4; OVCAR-4, read-out: Growth percent) was -11.1%, the activity at 10 µM (OVCAR-3; OVCAR-3, read-out: Growth percent) was -75% and the activity at 10 µM (SNB-75 [3]; SNB-75, read-out: Growth percent) was -79.5%. The activity at 10 µM (NCI-H322M [4]) was 25.9%, the activity at 10 µM (K-562; K562, read-out: Growth percent) was -43.4% and the activity at 10 µM (NCI-H460; NCI-H460, read-out: Growth percent) was -26.9%. For the same compound, the activity at 10 µM (A549/ATCC; A549, read-out: Growth percent) was 20.1%, the activity at 10 µM (SNB-19; SNB-19, read-out: Growth percent) was -95.2% and the activity at 10 µM (HCT-116; HCT-116, read-out: Growth percent) was -51%. For the same compound, the GI50 (Breast Cancer panel) was 310 nM, the GI50 (MALME-3M [5]; Malme-3M) was 295 nM and the GI50 (HS 578T; Hs-578T) was 473 nM. For the same compound, the GI50 (COLO 205; COLO 205) was 179 nM, the activity at 10 µM ([6]; 60 cell) was -45.4% and the activity at 10 µM (SN12C) was -80.6%. The GI50 (HL-60(TB); HL-60) was 170 nM, the GI50 (HOP-92; HOP-92) was 172 nM and the GI50 (DU-145; DU-145) was 418 nM. For the same compound, the activity at 10 µM (SK-MEL-5; SK-MEL-5, read-out: Growth percent) was -98.4%, the activity at 10 µM (ACHN) was 0.6% and the activity at 10 µM (MALME-3M [7]; Malme-3M) was -96.7%. For the same compound, the activity at 10 µM (RPMI-8226; RPMI-8226, read-out: Growth percent) was -38%, the GI50 (SR) was 221 nM and the activity at 10 µM (SK-MEL-28; SK-MEL-28, read-out: Growth percent) was -63.3%.

`CC[C@]12C=CCN3CC[C@@]4(c5ccc(OC)cc5N(C)[C@H]4[C@@](O)(C(=O)OC)[C@@H]1OC(=O)CCC[P+](c1ccccc1)(c1ccccc1)c1ccccc1)[C@@H]32` [compound 3, reference compound] gave a GI50 (NCI-H23; NCI-H23, Non-small Cell Lung Cancer, five-dose, read-out: GI50) of 971 nM, a GI50 (SNB-75 [1]; SNB-75, CNS Cancer, five-dose, read-out: GI50) of 750 nM and a GI50 (KM12; KM12, KM12, Colon Cancer, five-dose, read-out: GI50) of 297 nM. For the same compound, the GI50 (NCI/ADR-RES; Ovarian Cancer, five-dose, read-out: GI50) was over 50 µM, the GI50 (MDA-MB231ATCC; MDA-MB231ATCC, Breast Cancer, five-dose, read-out: GI50) was 406 nM and the GI50 (SF-539; SF-539, CNS Cancer, five-dose, read-out: GI50) was 662 nM. For the same compound, the GI50 (UO-31; UO-31, Renal Cancer, five-dose, read-out: GI50) was 10.8 µM, the activity at 10 µM (SK-OV-3; SK-OV-3, 10 μM, one-dose, read-out: Growth percent) was -21% and the GI50 (NCI-H322M [2]; Non-small Cell Lung Cancer, five-dose, read-out: GI50) was 2330 nM. For the same compound, the GI50 (SK-MEL-2; SK-MEL-2, SK-MEL-2, Melanoma, five-dose, read-out: GI50) was 322 nM, the GI50 (SF-268; SF-268, CNS Cancer, five-dose, read-out: GI50) was 975 nM and the activity at 10 µM (OVCAR-4; OVCAR-4, 10 μM, one-dose, read-out: Growth percent) was -3.58%. For the same compound, the activity at 10 µM (OVCAR-3; OVCAR-3, 10 μM, one-dose, read-out: Growth percent) was -2.49%, the activity at 10 µM (SNB-75 [3]; SNB-75, 10 μM, one-dose, read-out: Growth percent) was -4.39% and the activity at 10 µM (NCI-H322M [4]; 10 μM, one-dose) was 35.6%. It also gave an activity at 10 µM (K-562; K562, K-562, 10 μM, one-dose, read-out: Growth percent) of 10.4%, an activity at 10 µM (NCI-H460; NCI-H460, 10 μM, one-dose, read-out: Growth percent) of 6.11% and an activity at 10 µM (A549/ATCC; A549/ATCC, 10 μM, one-dose, read-out: Growth percent) of 13.4%. It also gave an activity at 10 µM (SNB-19; SNB-19, 10 μM, one-dose, read-out: Growth percent) of 11%, an activity at 10 µM (HCT-116; HCT-116, 10 μM, one-dose, read-out: Growth percent) of 8.72% and a GI50 (Breast Cancer panel; mean over Breast Cancer panel) of 450 nM. It also gave a GI50 (MALME-3M [5]; MALME-3M, Melanoma, five-dose, read-out: GI50) of 283 nM, a GI50 (HS 578T; HS 578T, Breast Cancer, five-dose, read-out: GI50) of 1260 nM and a GI50 (COLO 205; COLO 205, COLO 205, Colon Cancer, five-dose, read-out: GI50) of 161 nM. The activity at 10 µM ([6]; mean over 60 cell lines, 10 μM, one-dose) was 3.13%, the activity at 10 µM (SN12C; 10 μM, one-dose) was 2.73% and the GI50 (HL-60(TB); HL-60, HL-60(TB), Leukemia, five-dose, read-out: GI50) was 124 nM. It also gave a GI50 [8] of 1980 nM, a GI50 (HOP-92; HOP-92, Non-small Cell Lung Cancer, five-dose, read-out: GI50) of 66 nM and a GI50 (DU-145; DU-145, Prostate Cancer, five-dose, read-out: GI50) of 1070 nM. For the same compound, the activity at 10 µM (SK-MEL-5; SK-MEL-5, 10 μM, one-dose, read-out: Growth percent) was -91.5%, the activity at 10 µM (ACHN; 10 μM, one-dose) was 89.9% and the activity at 10 µM (MALME-3M [7]; MALME-3M, 10 μM, one-dose) was -12.4%. The activity at 10 µM (RPMI-8226; RPMI-8226, 10 μM, one-dose, read-out: Growth percent) was -12.7%, the GI50 (SR; Leukemia, five-dose, read-out: GI50) was 346 nM and the activity at 10 µM (SK-MEL-28; SK-MEL-28, 10 μM, one-dose, read-out: Growth percent) was 20.9%.
